System: CD4+ T-cell clones specific for modified GAD65 epitopes
Experiment: T-cell clone proliferation assay, [3H]-thymidine incorporation
Type: cell-based, human
Conditions: GAD154E,164E-specific T cells (data not shown)

For “TTG-treated GAD: GAD65 protein unfolded by heating and treated with transglutaminase”, the “proliferation in response to treated GAD protein” value was “not able to proliferate”.

From publication PMC4392921 (Diabetes, 2014)
